# Reference: patent publication EP4623912A1, “A METHOD FOR DEFATTENING A STEATOTIC LIVER EX VIVO” (ETH Zurich, priority 2024, dated 2025)
# Tests used:
# [1] = system: ATGL; assay: ATGL response to glucose deprivation after UCB9608-mediated depletion of Golgi Ptdlns4P; type: cell-based; settings: Golgi Ptdlns4P depleted by UCB9608
# [2] = system: male C57BL/6N wild-type mice; assay: HFD-induced hepatic steatosis (NAFLD) mouse model; type: in vivo; settings: HFD 12 weeks
# Method: Male mice were used for NAFLD induction via feeding on HFD. ROSA26-LSL-spCas9 mice were injected with AAV-U6-Cu/7 gRNAs-TBG-Cre and AAV-U6-Fbxw8 gRNAs-TBG-Cre virus pools at a dose of 3×10^11 genome copies/mouse and fed in HFD for 12 weeks and livers were harvested after 6 hours fasting. To study PI4KB in NAFLD progression, male ROSA26-LSL-spCas9 mice were fed in HFD for 12 weeks to induce fatty liver before induction of hepatocyte specific depletion of PI4KB via intravenous administration of AAV8. After another 8 weeks, mice were dissected to harvest liver after 6 hours fasting. Likewise, male C57BL/6N wild-type mice and liver specific Atgl knockout mice (AtgILKO) were challenged with HFD for 12 weeks to induce fatty liver prior to administration of UCB9608 mixed in HFD (5 mg/kg) for another 8 weeks. Then the mice were dissected to harvest tissues and sample blood after 6 hours fasting Atgl floxed mice (The Jackson Lab strain) were crossed with Albumin-Cre (The Jackson Lab strain) and Adip-CreERT2 strains to obtain Alb-Atgfl^fl/fl and AdipcreERT2-Atgl^fl/fl mice (Sitnick,M.T. et al, Diabetes 62, (2013)), which deplete ATGL protein in the liver and the adipose depots (induced after tamoxifen gavage), respectively. Male mice from both strains were injected with 2-DG (2 g/kg BW) to induce glucose deprivation for 6 hours prior to tissue and blood harvesting.
# Adipose depots, liver pieces, differentiated iBAs, HepG2, HEK293T and HEK293-AAV cell types were homogenized in RIPA buffer (50 mM Tris-HCl pH 7.4, 150 mM NaCl, 2 mM EDTA, 1.0% Triton X100, 0.5% sodium deoxycholate) with protease inhibitors (Complete, Roche) and phosphatase inhibitors (Halt phosphatase inhibitor cocktail, ThermoFisher). The homogenates were centrifuged at 12,000×g for 10 min at 4°C to remove debris and collect whole cell extract (WCE). The concentration of WCE was determined by DC Protein Assay (Bio-Rad). After boiling the sample with Lämmeli buffer at 95°C for 5 min, equal amount of proteins was loaded and separated on 12% SDS-PAGE. The proteins were transferred to nitrocellulose membrane and blotted by ATGL (1:1000, Cell Signaling), CGI-58 (1:1000, Proteintech), phospho-HSL(Ser660) (1:1000, Cell Signaling), PLIN1 (1:1000, Cell Signaling), HSL (1:1000, Cell Signaling), γ-tubulin (1:10000, Sigma), FLAG (1:10000, Sigma; 1:1000, Cell Signaling), MGL (1:1000, Abcam), HA (1:1000, Cell signaling), FBXW8 (1:100, Santa Cruz; 1:1000, Sigma), CUL7 (1:100, Santa Cruz), HSP90 (1:1000, Cell Signaling), K48 polyubiquitin (1:1000, Cell signaling), PI4KB (1:1000, Sigma), SACM1L (1:1000, Sigma), AKT1 (1:1000, Cell Signaling), phospho-AKT1(Ser473) (1:1000, Cell Signaling), TGN46 (1:1000, Abcam), MAOA (1:1000, Abcam), PLIN2 (1:1000, Abcam), PMP70 (1:10000, Sigma), Calnexin (1:1000, Cell Signaling), ARF1 (1:1000, Invitrogen), GAPDH (1:1000, Cell Signaling), RAB7 (1:1000, Cell Signaling), alpha 1 Sodium Potassium ATPase (1:1000, Abcam), Cleaved Caspase-3 (1:1000, Cell Signaling), phospho-AMPKα (Thr172) (1:1000, Cell Signaling), AMPKα (1:1000, Cell Signaling) and GM130 (1:1000, Proteintech). […]
# Plasma collected from mice under different conditions was used to determine levels of lipolysis and liver injury. FFA levels were measured via NEFA assay kit (Wako NEFA kit). TG levels were determined via TG assay kit (Roche Trig/GB reagent). […] The absorbance was monitored using Synergy Gen5 Platereader.
# Weight of liver pieces (50-100 mg) was recorded before homogenization by 1 mL isopropanol per 50 mg tissue. […]
# [3] = then UCB9608 in HFD (5 mg/kg) 8 weeks, vs DMSO
smiles,measurement,setting,value
COc1ccc(NC(=O)N2CCN(c3nc(N)nc4c3cnn4C)[C@@H](C)C2)c(C)c1 [UCB9608],ATGL response to glucose deprivation,[1],loss of ATGL regulation
same,ATGL protein levels in the gWAT,[2]; [3],significantly greater
same,ATGL protein levels in the iBAT,[2]; [3],significantly greater
same,ATGL protein levels in the liver,[2]; [3],significantly greater
same,hepatic steatosis (hepatic TG levels),"[2]; then UCB9608 in HFD (5 mg/kg) 8 weeks, requires ATGL in the liver (Fig. 6h)",substantially attenuated
same,plasma FFA levels,"[2]; then UCB9608 mixed in HFD (5 mg/kg) 8 weeks, vs DMSO (Fig. 6g)",significantly increased
